This note sets out measurements from US9573920B2, “Compound, medicine, anti-inflammatory, cosmetic, food and drink, and method for producing compound” (Amino Up Chemical Co., Ltd., priority 2013, dated 2017).

This assay relates to nitrogen monoxide (NO) production due to IL-1β. The assay is described as follows: NO production inhibitory action in IL-1β-stimulated rat liver cells (Griess method). In kind it is cell-based. The conditions noted are these: IL-1β 1 nM, 8 hours; for IC50: nitrite by Griess method, read-out: IC50 value (drug concentration at NO production of 50%). As to the method: Liver cells were isolated from male Wistar rats (200 to 250 g, Charles River) by a collagenase perfusion method (collagenase: Wako Pure Chemicals). The isolated liver cells were suspended in a medium at 6×10^5 cells/mL, seeded in 35 mm plastic dishes (Falcon Plastic) (2 mL/dish), and cultured in an incubator with 5% CO2 at 37° C. Williams' Medium E (WE) containing 10% newborn calf serum, HEPES (5 mM), penicillin (100 U/mL), streptomycin (0.1 mg/mL), dexamethasone (10 nM), and insulin (10 nM) was used as the medium. After 5 hours, the medium was replaced with fresh WE free of any serum and hormone, and the cells were cultured overnight until before use of the cells for an experiment.
On day 1 after the start of the culture, cells were subjected to replacement with fresh WE free of any serum and hormone, and recombinant rat IL-1β (purity of 97% or more) (PeproTech, Rocky Hill, N.J., USA), and Pa5 extracted with methanol in Example 1 or negletein in the comparative example were added to the medium. In each medium, the concentration of IL-1β was 1 nM, the concentrations of Pa5 were 5, 10, and 20 μM, and the concentrations of negletein were 10, 20, and 40 μM (FIG. 1). The amount of NO in each medium was measured 8 hours after the addition of IL-1β, and Pa5 or negletein by a Griess method (Green L C et al, Anal Biochem 1982; 126: 131-138). More specifically, the amount of nitrite (stable metabolite of NO) in each medium was measured.
Liver cells originated from rats were cultured in like manner with Example 4. On day 1 after the start of the culture, the cells were subjected to replacement with fresh WE free of any serum and hormone, and recombinant rat IL-1β (similar to that in Example 4) and Pa9 extracted with methanol in Example 3 were added to the medium. In each medium, the concentration of IL-1β was 1 nM, and the concentrations of Pa9 were 10 μM, 50 μM, and 100 μM (FIG. 5). The amount of NO in each medium was measured 8 hours after the addition of IL-1β and Pa9 in like manner with Example 4.

Take `O=c1ccc2cc(O)c(O)cc2o1` [Pa9, esculetin]: the IC50 is 32 µM. The “production of NO due to IL-1β” value (Pa9 10, 50, 100 μM) was “dose-dependently inhibited”.

Consider `COc1cc2oc(-c3ccccc3)cc(=O)c2c(O)c1O` [negletein, reference compound], for which the IC50 came out at 16.3 µM. Also, the “production of NO due to IL-1β” value (negletein 10, 20, 40 μM) was “dose-dependently inhibited”.
